# Measured values reported in PubChem BioAssay AID504367 (Southern Research Specialized Biocontainment Screening …, 2011).
# Activity calls are given as the source filed them.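 How the source made its calls: active means fusion inhibition of 50% or more at any tested concentration; inactive means the rest.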
# Test system: HeLa-CD4-LTR-beta-gal/HL2/3 cell fusion, beta-gal luminescence
# Experiment: inhibitors of X4 HIV-1 Env-mediated cell fusion, dose response, HeLa-CD4-LTR-beta-gal/HL2/3 cells, beta-gal luminescence (AID 504367)
row,IC50,Compound
1,48.4 µM,CC1=C(C(=O)OC(C)C)C(c2ccc(Cl)cc2)n2c(s/c(=C\c3ccc(OCC(=O)O)cc3)c2=O)=N1 (stereo not drawn)
2,77.1 µM,CCOC(=O)C1=C(C)N=c2sc(=Cc3ccc(OCC(=O)O)cc3)c(=O)n2C1c1ccc(F)cc1 (stereo not drawn)
3,1.66 µM,COc1ccc(-c2ccc(/C=C3\SC(=S)N(CCCC(=O)O)C3=O)o2)cc1
4,25.2 µM,CS(=O)(=O)C1=NSC2=NC(=O)/C(=C\c3cccn3-c3ccc(Br)cc3)C(=N)N21
5,4.6 µM,Cc1ccc(-c2ccc(/C=C3\SC(=S)N(CCCC(=O)O)C3=O)o2)cc1
6,46 µM,CCc1ccc(-n2cccc2/C=C2/C(=N)N3C(=NC2=O)SN=C3S(C)(=O)=O)cc1
7,40 µM,Cc1c2c(=O)n(-c3nc4ccccc4s3)nc-2cc(O)n1CCC(C)C
8,18.4 µM,COc1ccccc1NS(=O)(=O)c1ccc2c(c1)C1C=CCC1C(c1ccc(C(=O)O)cc1)N2 (stereo not drawn)
9,58.1 µM,CS(=O)(=O)C1=NSC2=NC(=O)/C(=C\c3cccn3-c3ccc(F)cc3)C(=N)N21
10,44.5 µM,CS(=O)(=O)C1=NSC2=NC(=O)/C(=C\c3cccn3-c3ccc(Cl)c(Cl)c3)C(=N)N21
11,2.1 µM,O=C(O)CCCN1C(=O)/C(=C/c2ccc(-c3ccc(Cl)c(Cl)c3)o2)SC1=S
12,50.1 µM,Cc1c2c(=O)n(-c3nc4ccccc4s3)nc-2cc(O)n1Cc1cccs1
13,50 µM,CCOC(=O)C1=C(C)N=c2s/c(=C\c3ccc(OCC(=O)O)cc3)c(=O)n2C1c1ccc(Cl)cc1 (stereo not drawn)
14,> 100 µM (inactive),COc1cccc(-n2cccc2/C=C2/C(=N)N3C(=NC2=O)SN=C3S(C)(=O)=O)c1
15,49.2 µM,COc1ccc(Cn2c(O)cc3nn(-c4nc5ccccc5s4)c(=O)c-3c2C)cc1
16,31.8 µM,O=C(O)CCCN1C(=O)/C(=C\c2ccc(-c3cccc(Cl)c3)o2)SC1=S
17,39.4 µM,O=C(O)c1ccc([C@@H]2Nc3ccc(S(=O)(=O)Nc4cccc5ccccc45)cc3[C@@H]3C=CC[C@@H]32)cc1
18,> 100 µM (inactive),O=C(O)CCCN1C(=O)/C(=C/c2cc3ccccc3o2)SC1=S
19,25.2 µM,O=C(O)CCCN1C(=O)/C(=C\c2ccc(-c3ccc(Cl)cc3)o2)SC1=S
20,43.6 µM,Cc1c2c(=O)n(-c3nc4ccccc4s3)nc-2cc(O)n1CCc1ccc(O)cc1
21,> 100 µM (inactive),CCOC(=O)C1=C(C)N=c2sc(=Cc3ccc(OCC(=O)O)cc3)c(=O)n2C1c1ccc(OC)cc1OC (stereo not drawn)
22,> 100 µM (inactive),Cc1c2c(=O)n(-c3nc4ccccc4s3)nc-2cc(O)n1Cc1ccncc1
23,> 100 µM (inactive),Nc1sc2ccccc2[n+]1Cc1ccc(C(=O)O)cc1
24,> 100 µM (inactive),O=C(O)CCC(C(=O)O)N1C(=O)/C(=C\c2ccco2)SC1=S (stereo not drawn)
25,27.7 µM,CCOC(=O)C1=C(C)N=c2s/c(=C\c3ccc(OCC(=O)O)cc3)c(=O)n2C1c1ccc(OC)c(OCC)c1 (stereo not drawn)
26,39.9 µM,Cc1ccc(-n2cccc2/C=C2/C(=N)N3C(=NC2=O)SN=C3S(C)(=O)=O)cc1
27,> 100 µM (inactive),CS(=O)(=O)C1=NSC2=NC(=O)/C(=C\c3cccn3-c3cccc(C(F)(F)F)c3)C(=N)N21

row,IC50,Compound
1,23.3 µM,CCOC(=O)C1=C(c2ccccc2)N=c2s/c(=C\c3ccc(OCC(=O)O)cc3)c(=O)n2C1c1cccc(OC)c1 (stereo not drawn)
2,> 100 µM (inactive),CCOC(=O)C1=C(C)N=c2sc(=Cc3ccc(OCC(=O)O)cc3)c(=O)n2C1c1ccccc1OC (stereo not drawn)
3,> 100 µM (inactive),CS(=O)(=O)C1=NSC2=NC(=O)/C(=C\c3cccn3-c3cc(Cl)cc(Cl)c3)C(=N)N21
4,> 100 µM (inactive),CCOC(=O)C1=C(C)N=c2sc(=Cc3ccc(OCC(=O)O)cc3)c(=O)n2C1c1ccccc1 (stereo not drawn)
5,42.2 µM,COc1ccccc1Cn1c(O)cc2nn(-c3nc4ccccc4s3)c(=O)c-2c1C
6,0.47 µM,O=C(O)CCCN1C(=O)/C(=C\c2ccc(-c3ccc(Br)cc3)o2)SC1=S
7,> 100 µM (inactive),Cc1c2c(=O)n(-c3nc4ccccc4s3)nc-2cc(O)n1Cc1cccnc1
8,3.86 µM,O=C(O)CCCN1C(=O)/C(=C\c2ccc(-c3ccc(F)cc3)o2)SC1=S
9,> 100 µM (inactive),O=C(O)c1ccc(C[n+]2c(-c3ccc([N+](=O)[O-])cc3)csc2Nc2ccccc2)cc1
10,32.1 µM,CS(=O)(=O)C1=NSC2=NC(=O)/C(=C\c3cccn3-c3cccc(Cl)c3)C(=N)N21
11,29.5 µM,Cc1c2c(=O)n(-c3nc4ccccc4s3)nc-2cc(O)n1Cc1ccccc1Cl
12,99.9 µM,CCOc1ccc(-n2cccc2/C=C2/C(=N)N3C(=NC2=O)SN=C3S(C)(=O)=O)cc1
13,> 100 µM (inactive),O=C(O)c1ccc(C[n+]2c(-c3ccccc3)csc2Nc2ccccc2)cc1
14,21.4 µM,Cc1ccc(-n2cccc2/C=C2/C(=N)N3C(=NC2=O)SN=C3S(C)(=O)=O)cc1C
15,67.7 µM,CS(=O)(=O)C1=NSC2=NC(=O)/C(=C\c3cccn3-c3ccc(Cl)cc3)C(=N)N21
16,> 100 µM (inactive),COc1ccc(-n2cccc2/C=C2/C(=N)N3C(=NC2=O)SN=C3S(C)(=O)=O)cc1Cl
17,2.47 µM,CCc1ccc(-c2ccc(/C=C3\SC(=S)N(CCCC(=O)O)C3=O)o2)cc1
18,35.9 µM,COc1ccc(CCn2c(O)cc3nn(-c4nc5ccccc5s4)c(=O)c-3c2C)cc1
19,> 100 µM (inactive),O=C(O)CCCN1C(=O)/C(=C/c2ccc(-c3cccc(C(F)(F)F)c3)o2)SC1=S
20,55.3 µM,Cc1c2c(=O)n(-c3nc4ccccc4s3)nc-2cc(O)n1Cc1ccc(F)cc1
21,> 100 µM (inactive),Cc1c2c(=O)n(-c3nc4ccccc4s3)nc-2cc(O)n1CCc1cccs1
22,60.4 µM,Cc1c2c(=O)n(-c3nc4ccccc4s3)nc-2cc(O)n1C1CC1
23,> 100 µM (inactive),COc1cccc(C2C(C(=O)Nc3ccccc3)=C(C)N=c3sc(=Cc4ccc(OCC(=O)O)cc4)c(=O)n32)c1 (stereo not drawn)
24,36.8 µM,O=C(O)c1ccc(C2Nc3ccc(S(=O)(=O)Nc4cc(Cl)ccc4Cl)cc3C3C=CCC32)cc1 (stereo not drawn)
25,> 100 µM (inactive),CCOC(=O)C1=C(C)N=c2sc(=Cc3ccc(OCC(=O)O)cc3)c(=O)n2C1c1cc(OC)c(OC)c(OC)c1 (stereo not drawn)
26,62.7 µM,CS(=O)(=O)C1=NSC2=NC(=O)/C(=C\c3cccn3-c3cccc(F)c3)C(=N)N21
